Experimental data taken from US10851098B2, “Azole amides and amines as alpha v integrin inhibitors” (BRISTOL-MYERS SQUIBB COMPANY, priority 2016, dated 2020).
pIC50: −log10 of the molar value.

Target: T1, human αVβ6 (Homo sapiens, UniProt P06756+P18564)
T1 construct: purchased R & D systems 3817-AV
Assay: human αVβ6 HTRF binding assay
Method: All binding assays used the HTRF (homogeneous time resolved fluorescence) technology from Cisbio International, therefore all assays are described as HTRF binding assays. The assay results for the Examples are listed above together with the characterization data. The HTRF binding assays are established for the following integrins: human αVβ6, human αVβ1, human αVβ3, human αVβ5, and human αVβ8. All assays used the following assay buffer: 20 mM Tris, pH 7.4, 1 mM MgCl2, 1 mM MnCl2, 0.01% Tween 20, and 0.01% BSA. Alternatively, a SPA-based assay was used for evaluation of receptor binding.
[…]

T1 sequence (P06756 31-992 limits assumed): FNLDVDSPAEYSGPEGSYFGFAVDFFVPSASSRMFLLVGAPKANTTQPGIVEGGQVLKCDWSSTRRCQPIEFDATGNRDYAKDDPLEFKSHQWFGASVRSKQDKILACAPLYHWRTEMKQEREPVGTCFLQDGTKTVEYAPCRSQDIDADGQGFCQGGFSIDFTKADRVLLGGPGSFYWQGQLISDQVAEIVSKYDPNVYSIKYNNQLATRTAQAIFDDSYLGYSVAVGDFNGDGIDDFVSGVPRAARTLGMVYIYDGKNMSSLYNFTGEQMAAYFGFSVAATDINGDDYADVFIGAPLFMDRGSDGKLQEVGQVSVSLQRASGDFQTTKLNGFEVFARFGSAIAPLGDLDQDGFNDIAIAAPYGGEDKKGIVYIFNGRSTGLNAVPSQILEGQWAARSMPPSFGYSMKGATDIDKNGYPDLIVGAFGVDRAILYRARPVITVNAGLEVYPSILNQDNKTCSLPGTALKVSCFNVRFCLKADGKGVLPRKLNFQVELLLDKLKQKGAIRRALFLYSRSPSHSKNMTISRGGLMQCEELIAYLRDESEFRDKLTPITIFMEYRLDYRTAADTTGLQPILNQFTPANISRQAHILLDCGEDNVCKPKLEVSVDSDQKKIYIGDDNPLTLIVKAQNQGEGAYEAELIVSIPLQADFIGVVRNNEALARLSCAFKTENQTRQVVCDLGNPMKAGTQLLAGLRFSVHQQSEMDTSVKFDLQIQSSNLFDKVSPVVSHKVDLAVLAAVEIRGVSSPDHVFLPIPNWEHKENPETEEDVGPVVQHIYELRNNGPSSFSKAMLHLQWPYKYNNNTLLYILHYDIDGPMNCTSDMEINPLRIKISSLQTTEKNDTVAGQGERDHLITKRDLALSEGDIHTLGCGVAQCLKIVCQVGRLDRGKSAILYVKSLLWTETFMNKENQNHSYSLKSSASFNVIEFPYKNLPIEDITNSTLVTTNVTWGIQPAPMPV
T1 sequence (P18564 22-707 limits assumed): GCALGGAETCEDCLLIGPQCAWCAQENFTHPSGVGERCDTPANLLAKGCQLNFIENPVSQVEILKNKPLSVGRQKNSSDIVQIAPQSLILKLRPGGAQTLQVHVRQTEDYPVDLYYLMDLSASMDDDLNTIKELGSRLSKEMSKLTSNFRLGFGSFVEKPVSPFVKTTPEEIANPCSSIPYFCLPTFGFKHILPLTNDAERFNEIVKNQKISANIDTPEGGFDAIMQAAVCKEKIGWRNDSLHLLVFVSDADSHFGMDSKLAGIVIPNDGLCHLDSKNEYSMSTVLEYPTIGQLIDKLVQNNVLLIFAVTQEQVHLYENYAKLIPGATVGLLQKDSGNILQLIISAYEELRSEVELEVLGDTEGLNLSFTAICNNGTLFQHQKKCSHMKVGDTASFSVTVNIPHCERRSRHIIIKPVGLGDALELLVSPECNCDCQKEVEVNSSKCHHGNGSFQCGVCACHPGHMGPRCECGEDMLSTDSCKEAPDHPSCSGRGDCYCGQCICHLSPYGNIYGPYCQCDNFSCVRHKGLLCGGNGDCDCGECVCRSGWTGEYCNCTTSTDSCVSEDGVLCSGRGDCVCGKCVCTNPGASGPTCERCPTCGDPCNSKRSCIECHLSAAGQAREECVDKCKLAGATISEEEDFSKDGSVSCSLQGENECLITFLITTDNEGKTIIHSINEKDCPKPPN

Structure (SMILES) | pIC50
CN(C(=O)c1cnn(CCc2ccc3c(n2)NCCC3)c1)C(CC(=O)O)c1cc(Cl)cc(Cl)c1 (stereo not drawn) [Example 32] | 8.12
O=C(O)C[C@H](NC(=O)c1cnn(CCc2ccc3c(n2)NCCC3)c1)c1cc(Cl)cc(Cl)c1 [Example 16, (S)-3-(3,5-Dichlorophenyl)-3-(1-(2-(5,6,7,8-tetrahydro-1,8-naphthyridin-2-yl)ethyl)-1H-pyrazole-4-carboxamido)propanoic acid] | 8.38
Cc1cccc(C(CC(=O)O)NC(=O)c2cnn(CCc3ccc4c(n3)NCCC4)c2CO)c1 (stereo not drawn) [Example 55] | 7.49
COc1ccc([C@H](CC(=O)O)NC(=O)c2cnn(CCc3ccc4c(n3)NCCC4)c2)cc1F [Example 39] | 7.82
CCN(C(=O)c1cnn(CCc2ccc3c(n2)NCCC3)c1)C(CC(=O)O)c1ccc(OC)nc1 (stereo not drawn) [Example 17, 3-(N-Ethyl-1-(2-(5,6,7,8-tetrahydro-1,8-naphthyridin-2-yl)ethyl)-1H-pyrazole-4-carboxamido)-3-(6-methoxypyridin-3-yl)propanoic acid] | 6.44
O=C(O)CC(NC(=O)c1cnn(CCc2ccc3c(n2)NCCC3)c1CO)c1ccc(Cl)cc1 (stereo not drawn) [Example 67] | 7.02
CC(C)(C)OCc1nn(CCCc2ccc3c(n2)NCCC3)cc1C(=O)NC(CC(=O)O)c1cc(Cl)cc(Cl)c1 (stereo not drawn) [Example 5, 3-(3-(tert-Butoxymethyl)-1-(3-(5,6,7,8-tetrahydro-1,8-naphthyridin-2-yl)propyl)-1H-pyrazole-4-carboxamido)-3-(3,5-dichlorophenyl)propanoic acid] | 6.80
COc1ccc([C@H](CC(=O)O)N(C)C(=O)c2cnn(CCc3ccc4c(n3)NCCC4)c2)cc1F [Example 18] | 7.89
O=C(O)CC(NC(=O)c1cnn(CCc2ccc3c(n2)NCCC3)c1)c1cc(Cl)cc(Cl)c1 (stereo not drawn) [Example 30] | 8.14
Cc1cc(C)n(-c2cccc(C(CC(=O)O)NC(=O)c3cnn(CCc4ccc5c(n4)NCCC5)c3COC(C)(C)C)c2)n1 (stereo not drawn) [Example 37] | 7.92
O=C(O)CC(NC(=O)c1cnn(CCc2ccc3c(n2)NCCC3)c1CO)c1ccc2c(c1)OCO2 (stereo not drawn) [Example 65] | 7.19
Cc1cc(C)c(S(=O)(=O)N[C@H](CNC(=O)c2cnn(CCCc3ccc4c(n3)NCCC4)c2)C(=O)O)c(C)c1 [Example 28] | 8.21
CC(C)(C)c1cc(Br)cc([C@H](CC(=O)O)NC(=O)c2cnn(CCCc3ccc4c(n3)NCCC4)c2)c1 [Example 61] | 7.31
O=C(O)CC(NC(=O)c1cnn(CCc2ccc3c(n2)NCCC3)c1CO)c1cc(Cl)cc(Cl)c1 (stereo not drawn) [Example 47] | 7.66
N#Cc1cccc(C(CC(=O)O)NC(=O)c2cnn(CCc3ccc4c(n3)NCCC4)c2CO)c1 (stereo not drawn) [Example 53] | 7.52
CN(C(=O)c1cnn(CCc2ccc3c(n2)NCCC3)c1CO)C(CC(=O)O)c1cc(Cl)cc(Cl)c1 (stereo not drawn) [Example 40] | 7.85
O=C(O)CC(NC(=O)c1cnn(CCc2ccc3c(n2)NCCC3)c1-c1ccccc1)c1cc(Cl)cc(Cl)c1 (stereo not drawn) [Example 69] | 6.95
COc1ccc([C@H](CC(=O)O)NC(=O)c2cn(CCc3ccc4c(n3)NCCC4)nc2CO)cc1F [Example 2, (S)-3-(3-Fluoro-4-methoxyphenyl)-3-(3-(hydroxymethyl)-1-(2-(5,6,7,8-tetrahydro-1,8-naphthyridin-2-yl)ethyl)-1H-pyrazole-4-carboxamido)propanoic acid] | 6.46
O=C(O)CC(NC(=O)c1cnn(CCc2ccc3c(n2)NCCC3)c1CO)c1cccc(-n2cccc2)c1 (stereo not drawn) [Example 64] | 7.19
Cc1ccc(C(CC(=O)O)NC(=O)c2cnn(CCc3ccc4c(n3)NCCC4)c2CO)cc1C (stereo not drawn) [Example 52] | 7.54
O=C(O)CC(NC(=O)c1cnn(CCc2ccc3c(n2)NCCC3)c1CO)c1cccc(F)c1 (stereo not drawn) [Example 75] | 6.89
O=C(O)C[C@H](NC(=O)c1cnn(CCCNc2ccccn2)c1)c1cc(Cl)cc(Cl)c1 [Example 7, (S)-3-(3,5-Dichlorophenyl)-3-(1-(3-(pyridin-2-ylamino)propyl)-1H-pyrazole-4-carboxamido)propanoic acid] | 7.20
Cc1c(C(=O)NC(CC(=O)O)c2cc(Cl)cc(Cl)c2)cnn1CCc1ccc2c(n1)NCCC2 (stereo not drawn) [Example 49] | 7.64
O=C(NC[C@@H](NC(=O)[C@@H]1CCCN1S(=O)(=O)c1ccccc1)C(=O)O)c1cnn(CCc2ccc3c(n2)NCCC3)c1 [Example 21] | 8.85

The next lines start with the values.

pIC50 | Structure (SMILES)
5.30 | Cc1nc2c(cc1CCn1ncc(C(=O)NC(CC(=O)O)c3cc(Cl)cc(Cl)c3)c1COC(C)(C)C)CCCN2 (stereo not drawn) [Example 108]
7.82 | Cc1ccc(CS(=O)(=O)N[C@@H](CNC(=O)c2cnn(CCc3ccc4c(n3)NCCC4)c2)C(=O)O)cc1 [Example 161]
5.96 | COC(=O)C[C@H](NC(=O)c1cnn(CCc2ccc3c(n2)NCCC3)c1)c1cc(Br)cc(C(C)(C)C)c1 [Example 96]
6.89 | CCOC(=O)[C@H](CNC(=O)c1cn(CCc2ccc3c(n2)NCCC3)cn1)NS(=O)(=O)c1c(C)cc(C)cc1C [Example 117]
8.41 | CC(C)CS(=O)(=O)N[C@@H](CNC(=O)c1cnn(CCc2ccc3c(n2)NCCC3)c1)C(=O)O [Example 145]
9.05 | O=C(NC[C@H](NS(=O)(=O)CCc1cccc2ccccc12)C(=O)O)c1cnn(CCc2ccc3c(n2)NCCC3)c1 [Example 139]
6.49 | O=C(NCC(C(=O)O)c1ccccc1)c1cnn(CCc2ccc3c(n2)NCCC3)c1 (stereo not drawn) [Example 85]
7.85 | COCCS(=O)(=O)N[C@@H](CNC(=O)c1cnn(CCc2ccc3c(n2)NCCC3)c1)C(=O)O [Example 147]
8.00 | CCS(=O)(=O)N[C@@H](CNC(=O)c1cnn(CCc2ccc3c(n2)NCCC3)c1)C(=O)O [Example 126]
7.80 | O=C(NC[C@H](NS(=O)(=O)Cc1cc(C(F)(F)F)cc(C(F)(F)F)c1)C(=O)O)c1cnn(CCc2ccc3c(n2)NCCC3)c1 [Example 157]
7.96 | Cc1cccc(CS(=O)(=O)N[C@@H](CNC(=O)c2cnn(CCc3ccc4c(n3)NCCC4)c2)C(=O)O)c1 [Example 143]
8.68 | Cc1cc(C)c(S(=O)(=O)N[C@@H](CNC(=O)c2cnn(CCCNC3=NCC(F)CN3)c2)C(=O)O)c(C)c1 (stereo partly drawn) [Example 173]
8.24 | O=C(NC[C@H](NS(=O)(=O)Cc1ccc(C(F)(F)F)cc1)C(=O)O)c1cnn(CCc2ccc3c(n2)NCCC3)c1 [Example 150]
5.84 | Cc1nc2c(cc1Cn1cc(C(=O)NC(CC(=O)O)c3cc(Cl)cc(Cl)c3)c(C)n1)CCCN2 (stereo not drawn) [Example 100]
6.67 | Cc1cc(C)c(S(=O)(=O)N[C@H](CNC(=O)c2cnn(CCc3cc4c(nc3C)NCCC4)c2)C(=O)O)c(C)c1 [Example 81]
8.59 | C=CCOC(=O)N[C@@H](CNC(=O)c1cnn(CCc2ccc3c(n2)NCCC3)c1)C(=O)O [Example 133]
8.52 | O=C(NC[C@H](NS(=O)(=O)CCC(F)(F)F)C(=O)O)c1cnn(CCc2ccc3c(n2)NCCC3)c1 [Example 129]
8.64 | CCOC(=O)N[C@@H](CNC(=O)c1cnn(CCc2ccc3c(n2)NCCC3)c1)C(=O)O [Example 132]
5.83 | CCOC(=O)C[C@H](NC(=O)c1cnn(CCc2ccc3c(n2)NCCC3)c1)c1cc(Cl)cc(Cl)c1 [Example 101]
5.59 | O=C(O)CC(NC(=O)c1cnn(CCc2ccc3c(n2)NCCC3)c1CO)c1ccccc1Cl (stereo not drawn) [Example 103]
8.26 | O=C(N[C@@H](CNC(=O)c1cnn(CCc2ccc3c(n2)NCCC3)c1)C(=O)O)OCCF [Example 170]
